Like-named read-outs stand apart in the source and are kept apart here. Non-standard residues stand in square brackets, D forms with d. Residues, ends and D or L forms follow the SMILES beside them. *: point of attachment. sY = N[C@@H](Cc1ccc(OS(=O)(=O)O)cc1)C(=O)O; Cbz = O=C(OCc1ccccc1)*
What was measured:
[1] = tested on: CCK-B receptors; details: literature; cited from earlier work
[2] = tested on: CCK; details: literature; cited from earlier work
[3] = biological target: T1, CCK receptor (pancreas) (Rattus norvegicus, UniProt P30551); experiment: CCK Receptor Binding (Pancreas), inhibition of 125I-CCK-8 binding; parameters: species or system rat (male Sprague-Dawley)
T1 construct: The whole pancreas was dissected free of fat tissue and was homogenized; from tissue; host or cells: whole pancreas membranes of male Sprague-Dawley rats
T1 sequence (P30551 1-444): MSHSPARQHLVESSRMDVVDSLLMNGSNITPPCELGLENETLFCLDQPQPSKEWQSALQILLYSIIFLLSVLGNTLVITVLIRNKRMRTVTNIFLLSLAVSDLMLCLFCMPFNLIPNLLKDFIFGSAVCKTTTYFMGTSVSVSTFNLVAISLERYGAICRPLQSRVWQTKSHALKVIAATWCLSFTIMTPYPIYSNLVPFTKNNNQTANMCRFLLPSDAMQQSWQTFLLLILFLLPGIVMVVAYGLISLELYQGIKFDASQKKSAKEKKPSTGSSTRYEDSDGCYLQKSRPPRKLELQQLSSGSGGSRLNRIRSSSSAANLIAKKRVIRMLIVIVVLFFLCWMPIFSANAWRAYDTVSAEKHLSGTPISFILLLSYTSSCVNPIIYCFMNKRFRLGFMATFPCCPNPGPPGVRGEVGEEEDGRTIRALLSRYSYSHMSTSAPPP
Protocol: 1. CCK Receptor Binding (Pancreas)
Male Sprague-Dawley rats (150-200 g) were sacrificed by decapitation. The whole pancreas was dissected free of fat tissue and was homogenized in 25 volumes of ice-cold 10 mM Hepes buffer with 0.1% soya bean trypsin inhibitor (pH 7.4 at 25° C.) with a Kinematica Polytron. The homogenates were centrifuged at 47,800 g for 10 min. Pellets were resuspended in 10 volumes of binding assay buffer (20 mM Hepes, 1 mM EGTA, 5 mM MgCl2, 150 mM NaCl, bacitracin 0.25 mg/ml, soya bean trypsin inhibitor 0.1 mg/ml, and bovine serum albumin 2 mg/ml, pH 6.5 at 25° C.) using a teflon homogenizer, 15 strokes at 500 rpm. The homogenate was further diluted in binding assay buffer to give a final concentration of 0.5 mg original wet weight/l ml buffer. […] All assays were run in duplicate. The reaction mixtures were incubated at 25° C. for 2 hours and the reaction terminated by rapid filtration (Brandell 24 well cell harvester) over Whatman GF/C filters, washing 3×4 mls with ice-cold 100 mM NaCl. The radioactivity on the filters was counted with a LKB gamma counter.
Drug displacement studies were performed with at least 10 concentrations of compounds of formula 1 and the IC50 values were determined by regression analysis.

[4] = biological target: T2, CCK receptor (brain) (Cavia porcellus, UniProt H0VZC5); experiment: CCK Receptor Binding (Brain), inhibition of 125I-CCK-8 binding; parameters: species or system guinea pig (male Hartley); details: guinea pig cortex, 50 pM 125I-CCK-8, pH 6.5, 25° C., 2 hours
T2 construct: the cortex was removed and homogenized in 25 mL ice-cold 0.32M sucrose; from tissue; host or cells: cortex P2 membranes of male Hartley guinea pigs
T2 sequence (H0VZC5 1-426): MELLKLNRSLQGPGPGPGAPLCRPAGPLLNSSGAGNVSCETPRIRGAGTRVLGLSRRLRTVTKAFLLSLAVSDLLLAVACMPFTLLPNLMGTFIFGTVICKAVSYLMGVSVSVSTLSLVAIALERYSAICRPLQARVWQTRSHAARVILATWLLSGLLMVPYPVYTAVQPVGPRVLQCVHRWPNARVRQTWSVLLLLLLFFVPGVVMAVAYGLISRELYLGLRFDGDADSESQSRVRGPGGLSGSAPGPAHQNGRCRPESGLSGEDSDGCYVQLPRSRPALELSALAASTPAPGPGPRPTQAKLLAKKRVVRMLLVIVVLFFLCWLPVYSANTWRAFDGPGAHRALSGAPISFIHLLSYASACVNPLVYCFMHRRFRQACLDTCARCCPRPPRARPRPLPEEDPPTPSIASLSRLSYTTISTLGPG
Protocol: CCK-8 sulphated was radiolabelled and the binding was performed according to the description for the pancreas method with minor modifications.
Male Hartley guinea pigs (300-500g) were sacrificed by decapitation and the cortex was removed and homogenized in 25 mL ice-cold 0.32M sucrose. The homogenates were centrifuged at 1000 g for 10 minutes and the resulting supernatant was recentrifuged at 20,000 g for 20 minutes. […] All assays were run in duplicate. The reaction mixtures were incubated at 25° C. for 2 hours and then the reaction was terminated on Whatman GF/C filters by rapid filtration (Brandell 24 well cell Harvester) with 3×5 ml washes of cold 100 mM NaCl. The radioactivity on the filters was then counted with a LKB gamma counter.
Drug displacement studies were performed with at least 10 concentrations of compounds of formula 1 and the IC50 values were determined by regression analysis. IC50 refers to the concentration of the compound required to inhibit 50% of specific binding of ^125 I-CCK-8.

SMILES | CCK antagonist / agonist activity (in words) [2] | IC50 [4] [nM] | IC50 [3] [nM] | other results
Cc1cccc(NC(=O)N[C@@H]2N=C(c3ccccc3)c3ccccc3N(C)C2=O)c1 [(R)-N-(2,3-dihydro-1-methyl-2-oxo-5-phenyl-1H-1,4-benzodiazepin-3-yl)-N^1-(3-methylphenyl) urea] | – | – | – | antagonist of CCK-B receptors (in words) [1]: potent and selective antagonist of CCK-B receptors
CSCC[C@H](NC(=O)[C@H](Cc1ccc(OS(=O)(=O)O)cc1)NC(=O)OCc1ccccc1)C(=O)NCC(=O)N[C@@H](Cc1c[nH]c2ccccc12)C(=O)N[C@@H](CCSC)C(=O)N[C@@H](CC(=O)O)C(N)=O [Cbz-Tyr(SO3 H)-Met-Gly-Trp-Met-Asp-NH2] (Cbz-[sY]MGWMD-NH2) | partial agonist | – | – | –
COC(=O)C1(NC(=O)OC(C)(C)C)CCc2c(cccc2NC(=O)N[C@@H]2N=C(c3ccccc3)c3ccccc3N(C)C2=O)C1 (stereo partly drawn) [Example 21, N-{(3R)-1,3-Dihydro-1-methyl-2-oxo-5-phenyl-1H-1,4-benzodiazepin-3-yl}-N'-{[5-(methyl-2-(R,S)-tert-butyloxycarbonylamino-1,2,3,4-tetrahydro-2-naphthoate)]-urea}] | – | 1690 | – | IC50 ([3]; read-out: IC50 125I-CCK Pancreas, rat pancreas, 50 pM 125I-CCK-8, pH 6.5, 25° C., 2 hours): > 3000 nM
COC(=O)C1(N)CCc2c(cccc2NC(=O)N[C@@H]2N=C(c3ccccc3)c3ccccc3N(C)C2=O)C1 (stereo partly drawn) [Example 22, N-{(3R)-1,3-Dihydro-1-methyl-2-oxo-5-phenyl-1H-1,4-benzodiazepin-3-yl}-N'-{[5-(methyl-2-(R,S)-amino-1,2,3,4-tetrahydro-2-naphthoate)]-urea}] | – | 2160 | > 3000 | –
CN1C(=O)[C@H](NC(=O)Nc2cccc3c2CCC(N)(C(=O)O)C3)N=C(c2ccccc2)c2ccccc21 (stereo partly drawn) [Example 23, N-{(3R)-1,3-Dihydro-1-methyl-2-oxo-5-phenyl-1H-1,4-benzodiazepin-3-yl}-N'-{[5-(2-(R,S)-amino-1,2,3,4-tetrahydro-2-naphthoic acid)]-urea}] | – | > 3000 | > 3000 | –
CCCC(=O)Nc1nc2c(ncn2[C@@H]2O[C@@H]3COP(=O)(O)O[C@H]3[C@H]2OC(=O)CCC)c(=O)[nH]1 [dibutyryl cyclic GMP] | the most potent | – | – | –

Reference: patent publication US5378838A, “Benzodiazepine cholecystokinin antagonists” (Merck & Co., Inc., priority 1993, dated 1995)
